Assay results published in US11452718B2 (AVALYN PHARMA INC., priority 2012, dated 2022).

What was measured:
[1] = Aqueous formulation observations: solubility, salt addition, taste, dissolution time; type: physicochemical
Procedure: However, at this (and lower) concentration it was determined that salt addition was required to improve acute tolerability upon inhalation of a nebulized solution (otherwise a hypotonic solution). To address tonicity, NaCl or MgCl2 were added. […] This effect was not observed at ˜pH 8.

[2] = in vivo; cited from earlier work
[3] = Stability assessment of pirfenidone formulations at 25° C./60RH and 40° C./75RH; type: physicochemical
Procedure: The sample was agitated until completely dissolved. Once dissolved, samples were filtered via syringe through a 0.22 μm PVDF filter.
Samples were refrigerated to reduce evaporative loss of volatile co-solvents (ethanol) during filtration and dispensing. An approximate 5.0-mL aliquot of each formulation was transferred to class A glass 6 ml containers with suitable closures (20 mm stopper). At least 8 containers are being maintained in the upright orientation at 25° C./60RH, and another 8 containers maintained at 40° C./75RH.

[4] = 25° C./60% RH, 5 mM phosphate buffer pH 6.5 plus 1% (v/v) EtOH, 2% (v/v) PG, target pirfenidone 1 mg/mL
[5] = 25° C./60% RH, 5 mM phosphate buffer pH 6.5 plus 1% (v/v) EtOH, 2% (v/v) PG, target pirfenidone 15 mg/mL
[6] = 25° C./60% RH, 5 mM phosphate buffer pH 6.5 plus 4% (v/v) EtOH, 8% (v/v) PG, target pirfenidone 23 mg/mL
[7] = 25° C./60% RH, 5 mM phosphate buffer pH 6.5 plus 6% (v/v) EtOH, 12% (v/v) PG, target pirfenidone 30 mg/mL
[8] = 25° C./60% RH, 5 mM phosphate buffer pH 6.5 plus 8% (v/v) EtOH, 16% (v/v) PG, target pirfenidone 1 mg/mL
[9] = 25° C./60% RH, 5 mM phosphate buffer pH 6.5 plus 8% (v/v) EtOH, 16% (v/v) PG, target pirfenidone 38 mg/mL
[10] = 40° C./75% RH, 5 mM phosphate buffer pH 6.5 plus 1% (v/v) EtOH, 2% (v/v) PG, target pirfenidone 1 mg/mL
[11] = 40° C./75% RH, 5 mM phosphate buffer pH 6.5 plus 1% (v/v) EtOH, 2% (v/v) PG, target pirfenidone 15 mg/mL
[12] = 40° C./75% RH, 5 mM phosphate buffer pH 6.5 plus 4% (v/v) EtOH, 8% (v/v) PG, target pirfenidone 23 mg/mL
[13] = 40° C./75% RH, 5 mM phosphate buffer pH 6.5 plus 6% (v/v) EtOH, 12% (v/v) PG, target pirfenidone 30 mg/mL
[14] = 40° C./75% RH, 5 mM phosphate buffer pH 6.5 plus 8% (v/v) EtOH, 16% (v/v) PG, target pirfenidone 1 mg/mL
[15] = 40° C./75% RH, 5 mM phosphate buffer pH 6.5 plus 8% (v/v) EtOH, 16% (v/v) PG, target pirfenidone 38 mg/mL

With `Cc1ccc(=O)n(-c2ccccc2)c1` [pirfenidone, 5-methyl-1-phenyl-2-(1H)-pyridone] the “formulation stability on addition of MgCl2” value ([1]; MgCl2 added, 1:1 and 1:2 mole ratios magnesium to pirfenidone) was “maintained a stable, soluble solution”, the “formulation stability on addition of NaCl” value ([1]; NaCl added to address tonicity, ambient storage) was “destabilized the formulation and resulted in precipitation upon ambient storage” and the “acute tolerability upon inhalation of a nebulized solution” value ([1]; addition of NaCl) was “improved acute tolerability”. The solubility ([1]; aqueous solution, aqueous buffer, across a pH range of about 4.0 to about 8.0) was 17 mg/mL, the “administered dose excreted in the urine” value [2] was “about 80%” and the “Pirfenidone (mg/mL) at Time = 0” value [3, 4] was 1.0 mg/mL. For the same molecule, the “Pirfenidone (mg/mL) at Time = 1 month” value [3, 4] was 1.0 mg/mL, the “Pirfenidone (mg/mL) at Time = 3 month” value [3, 4] was 1.0 mg/mL and the “Pirfenidone (mg/mL) at Time = 6 month” value [3, 4] was 1.0 mg/mL. The “Pirfenidone (mg/mL) at Time = 0” value [3, 5] was 16.1 mg/mL, the “Pirfenidone (mg/mL) at Time = 1 month” value [3, 5] was 15.1 mg/mL and the “Pirfenidone (mg/mL) at Time = 3 month” value [3, 5] was 14.9 mg/mL. For the same molecule, the “Pirfenidone (mg/mL) at Time = 6 month” value [3, 5] was 15.4 mg/mL, the “Pirfenidone (mg/mL) at Time = 0” value [3, 6] was 24.1 mg/mL and the “Pirfenidone (mg/mL) at Time = 1 month” value [3, 6] was 22.1 mg/mL. For the same molecule, the “Pirfenidone (mg/mL) at Time = 3 month” value [3, 6] was 22.3 mg/mL, the “Pirfenidone (mg/mL) at Time = 6 month” value [3, 6] was 23.2 mg/mL and the “Pirfenidone (mg/mL) at Time = 0” value [3, 7] was 30.3 mg/mL. For the same molecule, the “Pirfenidone (mg/mL) at Time = 1 month” value [3, 7] was 30.1 mg/mL, the “Pirfenidone (mg/mL) at Time = 3 month” value [3, 7] was 29.6 mg/mL and the “Pirfenidone (mg/mL) at Time = 6 month” value [3, 7] was 31.0 mg/mL. The “Pirfenidone (mg/mL) at Time = 0” value [3, 8] was 1.0 mg/mL, the “Pirfenidone (mg/mL) at Time = 1 month” value [3, 8] was 1.0 mg/mL and the “Pirfenidone (mg/mL) at Time = 3 month” value [3, 8] was 1.0 mg/mL. For the same molecule, the “Pirfenidone (mg/mL) at Time = 6 month” value [3, 8] was 1.0 mg/mL, the “Pirfenidone (mg/mL) at Time = 0” value [3, 9] was 38.9 mg/mL and the “Pirfenidone (mg/mL) at Time = 1 month” value [3, 9] was 38.3 mg/mL. The “Pirfenidone (mg/mL) at Time = 3 month” value [3, 9] was 38.0 mg/mL, the “Pirfenidone (mg/mL) at Time = 6 month” value [3, 9] was 39.2 mg/mL and the “Pirfenidone (mg/mL) at Time = 0” value [3, 10] was 1.0 mg/mL. The “Pirfenidone (mg/mL) at Time = 1 month” value [3, 10] was 1.0 mg/mL, the “Pirfenidone (mg/mL) at Time = 3 month” value [3, 10] was 1.0 mg/mL and the “Pirfenidone (mg/mL) at Time = 6 month” value [3, 10] was 1.0 mg/mL. For the same molecule, the “Pirfenidone (mg/mL) at Time = 0” value [3, 11] was 16.1 mg/mL, the “Pirfenidone (mg/mL) at Time = 1 month” value [3, 11] was 15.1 mg/mL and the “Pirfenidone (mg/mL) at Time = 3 month” value [3, 11] was 14.8 mg/mL. For the same molecule, the “Pirfenidone (mg/mL) at Time = 6 month” value [3, 11] was 15.5 mg/mL, the “Pirfenidone (mg/mL) at Time = 0” value [3, 12] was 24.1 mg/mL and the “Pirfenidone (mg/mL) at Time = 1 month” value [3, 12] was 22.4 mg/mL. For the same molecule, the “Pirfenidone (mg/mL) at Time = 3 month” value [3, 12] was 22.1 mg/mL, the “Pirfenidone (mg/mL) at Time = 6 month” value [3, 12] was 23.3 mg/mL and the “Pirfenidone (mg/mL) at Time = 0” value [3, 13] was 30.3 mg/mL. The “Pirfenidone (mg/mL) at Time = 1 month” value [3, 13] was 30.3 mg/mL, the “Pirfenidone (mg/mL) at Time = 3 month” value [3, 13] was 30.0 mg/mL and the “Pirfenidone (mg/mL) at Time = 6 month” value [3, 13] was 31.1 mg/mL. For the same molecule, the “Pirfenidone (mg/mL) at Time = 0” value [3, 14] was 1.0 mg/mL, the “Pirfenidone (mg/mL) at Time = 1 month” value [3, 14] was 1.0 mg/mL and the “Pirfenidone (mg/mL) at Time = 3 month” value [3, 14] was 1.0 mg/mL. For the same molecule, the “Pirfenidone (mg/mL) at Time = 6 month” value [3, 14] was 1.0 mg/mL, the “Pirfenidone (mg/mL) at Time = 0” value [3, 15] was 38.9 mg/mL and the “Pirfenidone (mg/mL) at Time = 1 month” value [3, 15] was 38.4 mg/mL. The “Pirfenidone (mg/mL) at Time = 3 month” value [3, 15] was 38.0 mg/mL and the “Pirfenidone (mg/mL) at Time = 6 month” value [3, 15] was 37.9 mg/mL.
